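Results reflect a 48-hour exposure of cells in 96-well plates to compound at five concentrations. TGI marks complete inhibition of growth.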
Columns and labels:
Assay in all cases: NCI-60 cell line screen, 48 h
MDA-MB-435 = system: MDA-MB-435
SN12C renal = system: SN12C renal
RPMI-8226 leukemia = system: RPMI-8226 leukemia

SMILES: CN(C)CC1CCC/C(=C\c2ccccc2)C1=O (stereo not given)
- TGI (MDA-MB-435): 3.54 µM
- TGI (SN12C renal): 18.5 µM

SMILES: COc1ccc2c(c1OC)C(=O)N/C2=C\c1c(CCN(C)C)cc2c(c1OC)OCO2
- TGI (MDA-MB-435): > 100 µM
- TGI (SN12C renal): > 100 µM
- TGI (RPMI-8226 leukemia): > 100 µM

SMILES: Cc1cc(S(=O)(=O)NC(=NCCc2ccccc2)NN)c(S)cc1Cl
- TGI (MDA-MB-435): 61.1 µM
- TGI (SN12C renal): > 100 µM
- TGI (RPMI-8226 leukemia): > 100 µM

SMILES: CCOC(=O)C1(N)CC1
- TGI (MDA-MB-435): > 100 µM
- TGI (SN12C renal): > 100 µM
- TGI (RPMI-8226 leukemia): > 100 µM

SMILES: CCNc1nnc(-c2ccccc2Nc2ccccc2-c2nnc(NCC)s2)s1
- TGI (MDA-MB-435): 71.4 µM
- TGI (SN12C renal): > 49.7 µM
- TGI (RPMI-8226 leukemia): 73.4 µM

SMILES: CN(C)c1ccc(/C=C(\NC(=O)c2ccccc2)C(=O)Nc2cccc(C(=O)NCCCO)c2)cc1
- TGI (MDA-MB-435): > 100 µM
- TGI (SN12C renal): > 100 µM
- TGI (RPMI-8226 leukemia): > 100 µM

SMILES: COc1ccc(-c2nc3c(C(=O)NCCN(C)C)cccc3c3ccccc23)cc1
- TGI (MDA-MB-435): 5.16 µM
- TGI (SN12C renal): 16.9 µM

SMILES: CN1CC2=C(NC(=S)NC2c2ccccc2Cl)/C(=C/c2ccccc2Cl)C1 (stereo not given)
- TGI (MDA-MB-435): > 100 µM
- TGI (SN12C renal): > 100 µM

SMILES: CCOc1cccc(-c2cc(=O)c3cc4c(cc3[nH]2)OCO4)c1
- TGI (MDA-MB-435): 0.0528 µM
- TGI (SN12C renal): 5.38 µM
- TGI (RPMI-8226 leukemia): > 100 µM

SMILES: O=[N+]([O-])C(/C=C(\Cl)[N+](=O)[O-])=C(N1CCCCC1)N1CCCCC1
- TGI (MDA-MB-435): 30.6 µM
- TGI (SN12C renal): > 100 µM
- TGI (RPMI-8226 leukemia): > 100 µM

SMILES: C#CCOCn1cc(C)c(=O)[nH]c1=O
- TGI (SN12C renal): > 100 µM
- TGI (RPMI-8226 leukemia): > 100 µM

SMILES: Cc1ccsc1C(=S)Nc1ccc(Cl)c(/C=N/OC(C)C)c1
- TGI (MDA-MB-435): > 100 µM
- TGI (SN12C renal): > 100 µM
- TGI (RPMI-8226 leukemia): 34.1 µM

SMILES: S=C1CC(c2ccccc2)Sc2cc(Cl)ccc2N1 (stereo not given)
- TGI (MDA-MB-435): 30 µM
- TGI (SN12C renal): > 100 µM
- TGI (RPMI-8226 leukemia): > 100 µM

SMILES: COC(=O)[C@]12CSC[C@H]1C[C@H](c1cccc3ccccc13)N2
- TGI (MDA-MB-435): > 100 µM
- TGI (SN12C renal): > 100 µM
- TGI (RPMI-8226 leukemia): > 100 µM

SMILES: O=C(CN=C(CN(c1ccccc1)c1ccccc1)Oc1ccc(Cl)cc1Cl)n1ccnc1
- TGI (MDA-MB-435): > 100 µM
- TGI (SN12C renal): > 100 µM
- TGI (RPMI-8226 leukemia): > 100 µM

SMILES: CC1=CC(=O)N(n2c(Cc3ccc(Cl)cc3)n[nH]c2=O)C1=O
- TGI (MDA-MB-435): > 100 µM
- TGI (SN12C renal): > 100 µM
- TGI (RPMI-8226 leukemia): 53.2 µM

SMILES: O=S(=O)(c1cc(Cl)ccc1Cl)N1CCN(c2cccc(Cl)c2)CC1
- TGI (SN12C renal): > 100 µM
- TGI (RPMI-8226 leukemia): > 100 µM

SMILES: Cc1ccc(C(=O)Oc2ccc(/C=C3\CCC/C(=C\c4ccc(OC(=O)c5ccc(C)cc5)cc4)C3=O)cc2)cc1
- TGI (MDA-MB-435): > 100 µM
- TGI (SN12C renal): > 100 µM
- TGI (RPMI-8226 leukemia): > 100 µM

SMILES: O=C1[C@@H](O)[C@@H]2CCCC[C@@]23CCCN13
- TGI (MDA-MB-435): > 100 µM
- TGI (SN12C renal): > 100 µM
- TGI (RPMI-8226 leukemia): > 100 µM

SMILES: CCCC(=O)OC[n+]1ccc(-c2c(COC(=O)NC(C)C)c(COC(=O)NC(C)C)c3n2CCC3)cc1
- TGI (MDA-MB-435): > 100 µM
- TGI (SN12C renal): > 100 µM
- TGI (RPMI-8226 leukemia): > 100 µM

SMILES: CCC12C=CCN3CCC4(c5cc(C(c6ccc(OC)cc6)C6Cc7ccccc7N6)c(OC)cc5N(C)C4C(O)(C(=O)OC)C1O)C32 (stereo not given)
- TGI (MDA-MB-435): 80.4 µM
- TGI (SN12C renal): > 100 µM
- TGI (RPMI-8226 leukemia): 13.8 µM

SMILES: Cc1ccccc1Nc1nc(NNC(=O)Cc2ccccc2)nc(NNC(=O)c2ccncc2)n1
- TGI (SN12C renal): > 10 µM
- TGI (RPMI-8226 leukemia): > 10 µM

SMILES: CC1(C)CCCCCCCCCC2CC2CCC(C)(C)C1=O (stereo not given)
- TGI (MDA-MB-435): 55.5 µM
- TGI (SN12C renal): 35.7 µM
- TGI (RPMI-8226 leukemia): 75.9 µM

SMILES: Nc1cc(Cl)ccc1SSc1ccc(Cl)cc1N
- TGI (MDA-MB-435): 25.9 µM
- TGI (SN12C renal): 28.7 µM
- TGI (RPMI-8226 leukemia): > 100 µM

SMILES: CC(C(=O)n1ccnc1)N1c2ccccc2Sc2ccccc21 (stereo not given)
- TGI (MDA-MB-435): > 100 µM
- TGI (SN12C renal): > 100 µM
- TGI (RPMI-8226 leukemia): > 100 µM

SMILES: O=c1[nH]c2c(c(=O)[nH]1)C(c1ccc([N+](=O)[O-])cc1)c1c([nH]c(=O)[nH]c1=O)O2
- TGI (MDA-MB-435): > 100 µM
- TGI (SN12C renal): > 100 µM
- TGI (RPMI-8226 leukemia): 75 µM

SMILES: CC1=CC(=O)N(n2c(-c3ccccc3)n[nH]c2=O)C1=O
- TGI (MDA-MB-435): > 100 µM
- TGI (SN12C renal): > 100 µM
- TGI (RPMI-8226 leukemia): > 100 µM

SMILES: O=c1[nH]c(=O)n(CCOc2ccc(Cl)cc2)cc1Nc1ccccc1
- TGI (MDA-MB-435): > 100 µM
- TGI (SN12C renal): > 100 µM
- TGI (RPMI-8226 leukemia): > 100 µM

SMILES: CS(=O)(=O)O[C@H]1[C@H](O)c2ccccc2[C@@H]1N=[N+]=[N-]
- TGI (MDA-MB-435): > 100 µM
- TGI (SN12C renal): > 100 µM
- TGI (RPMI-8226 leukemia): > 100 µM

SMILES: NC(=O)CCC(NC(=O)c1c2ccccc2nc2ccccc12)C(=O)O (stereo not given)
- TGI (MDA-MB-435): > 100 µM
- TGI (SN12C renal): > 100 µM
- TGI (RPMI-8226 leukemia): > 100 µM

SMILES: O=S(=O)(CCC[C@H]1[C@@H](CCOCc2ccccc2)C2CCCN1O2)c1ccccc1 (stereo not given in full)
- TGI (MDA-MB-435): > 100 µM
- TGI (SN12C renal): > 100 µM

SMILES: O=CN1CCC23CC(O)CCC2C1Cc1cc(Oc2nnnn2-c2ccccc2)cc(O)c13 (stereo not given)
- TGI (MDA-MB-435): > 100 µM
- TGI (SN12C renal): > 100 µM
- TGI (RPMI-8226 leukemia): > 100 µM

SMILES: C=CC1(c2ccc3ccccc3c2)OCC(CC)O1 (stereo not given)
- TGI (MDA-MB-435): > 100 µM
- TGI (SN12C renal): > 100 µM
- TGI (RPMI-8226 leukemia): > 100 µM

SMILES: C[N+]12C=CC=C1C(N1CCCC1)c1scc(-c3ccc(F)cc3)c12 (stereo not given)
- TGI (MDA-MB-435): > 100 µM
- TGI (SN12C renal): > 100 µM
- TGI (RPMI-8226 leukemia): > 100 µM

SMILES: O=c1[nH]nc(Cc2ccccc2)n1/N=C/c1ccc([N+](=O)[O-])cc1
- TGI (MDA-MB-435): > 100 µM
- TGI (SN12C renal): > 100 µM

SMILES: CC1=N[C@@](C)(C2CC3C=CC2C3=O)COC1=O (stereo not given in full)
- TGI (MDA-MB-435): > 100 µM
- TGI (SN12C renal): > 100 µM

SMILES: CCOC(=O)N/N=C(\CC)OCC
- TGI (SN12C renal): > 100 µM

Reference: PubChem BioAssay (NCI)
